Results as given in ChEMBL document CHEMBL1201862, “PubChem BioAssay data set” (2004).
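Briefly, cells in 96-well plates were exposed to five compound concentrations for 48 h, and endpoints were estimated by linear interpolation. GI50 is the concentration that inhibits growth by half.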 Activity calls are given as the source filed them. Cut-off read from the data, not from the text of the source: active = GI50 up to about 1.1 µM and inactive = higher.

Key:
Test in all cases: NCI tumour cell line growth inhibition, 48 h
A549 = test system: A549
UACC-257 = test system: UACC-257
SNB-19 = test system: SNB-19
OVCAR-4 = test system: OVCAR-4
NCI-H23 = test system: NCI-H23
786-0 = test system: 786-0
SR = test system: SR
NCI-H522 = test system: NCI-H522
LOX IMVI = test system: LOX IMVI
M14 = test system: M14
IGROV-1 = test system: IGROV-1
RXF 631 = test system: RXF 631
MOLT-4 = test system: MOLT-4
OVCAR-3 = test system: OVCAR-3
HCC 2998 = test system: HCC 2998
K562 = test system: K562
UACC-62 = test system: UACC-62
NCI-H460 = test system: NCI-H460
KM-20L2 = test system: KM-20L2
SF-539 = test system: SF-539
XF498 = test system: XF498
SN12C = test system: SN12C
SF-268 = test system: SF-268
TK-10 = test system: TK-10
HL-60 = test system: HL-60
ACHN = test system: ACHN
HT-29 = test system: HT-29
OVCAR-8 = test system: OVCAR-8
SK-MEL-2 = test system: SK-MEL-2
LXFL 529 = test system: LXFL 529
Malme-3M = test system: Malme-3M
SW-620 = test system: SW-620
DMS-273 = test system: DMS-273
HCT-116 = test system: HCT-116
SK-OV-3 = test system: SK-OV-3
EKVX = test system: EKVX
NCI-H226 = test system: NCI-H226
HOP-62 = test system: HOP-62
OVCAR-5 = test system: OVCAR-5
RXF 393 = test system: RXF 393
UO-31 = test system: UO-31
M19-MEL = test system: M19-MEL
COLO 205 = test system: COLO 205
DLD-1 = test system: DLD-1
CCRF-CEM = test system: CCRF-CEM
KM12 = test system: KM12
DMS-114 = test system: DMS-114
HCT-15 = test system: HCT-15
CAKI-1 = test system: CAKI-1
SF-295 = test system: SF-295
U-251 = test system: U-251
SK-MEL-28 = test system: SK-MEL-28

Structure (SMILES): Cc1nc(-c2nc(C)c(C(=O)/C=C/c3ccc(N(C)C)cc3)s2)sc1C(=O)/C=C/c1ccc(N(C)C)cc1
- GI50 (A549): 44.2 µM (inactive)
- GI50 (UACC-257): > 100 µM (inactive)
- GI50 (SNB-19): 64.1 µM (inactive)
- GI50 (OVCAR-4): 46 µM (inactive)
- GI50 (NCI-H23): > 100 µM (inactive)
- GI50 (786-0): 54 µM (inactive)
- GI50 (SR): > 100 µM (inactive)
- GI50 (NCI-H522): 31.3 µM (inactive)
- GI50 (LOX IMVI): 38.3 µM (inactive)
- GI50 (M14): 38.5 µM (inactive)
- GI50 (IGROV-1): 31 µM (inactive)
- GI50 (RXF 631): > 100 µM (inactive)
- GI50 (MOLT-4): > 100 µM (inactive)
- GI50 (OVCAR-3): > 100 µM (inactive)
- GI50 (HCC 2998): > 100 µM (inactive)
- GI50 (K562): 33.4 µM (inactive)
- GI50 (UACC-62): 18.5 µM (inactive)
- GI50 (NCI-H460): > 100 µM (inactive)
- GI50 (KM-20L2): > 100 µM (inactive)
- GI50 (SF-539): 41.7 µM (inactive)
- GI50 (XF498): 23.4 µM (inactive)
- GI50 (SN12C): > 100 µM (inactive)
- GI50 (SF-268): > 100 µM (inactive)
- GI50 (TK-10): > 100 µM (inactive)
- GI50 (HL-60): 46 µM (inactive)
- GI50 (ACHN): > 100 µM (inactive)
- GI50 (HT-29): > 10 µM (inactive)
- GI50 (OVCAR-8): > 100 µM (inactive)
- GI50 (SK-MEL-2): > 100 µM (inactive)
- GI50 (LXFL 529): 34.8 µM (inactive)
- GI50 (Malme-3M): 66.4 µM (inactive)
- GI50 (SW-620): 31.2 µM (inactive)
- GI50 (DMS-273): 39.1 µM (inactive)
- GI50 (HCT-116): 29.3 µM (inactive)
- GI50 (SK-OV-3): > 100 µM (inactive)
- GI50 (EKVX): > 100 µM (inactive)
- GI50 (NCI-H226): > 100 µM (inactive)
- GI50 (HOP-62): > 100 µM (inactive)
- GI50 (OVCAR-5): > 100 µM (inactive)
- GI50 (RXF 393): > 100 µM (inactive)
- GI50 (UO-31): > 100 µM (inactive)
- GI50 (M19-MEL): 51.1 µM (inactive)
- GI50 (COLO 205): > 100 µM (inactive)
- GI50 (DLD-1): 29.5 µM (inactive)
- GI50 (CCRF-CEM): > 100 µM (inactive)
- GI50 (KM12): 40.9 µM (inactive)
- GI50 (DMS-114): > 100 µM (inactive)
- GI50 (HCT-15): 37.8 µM
- GI50 (CAKI-1): > 100 µM (inactive)
- GI50 (SF-295): 31.9 µM (inactive)
- GI50 (U-251): > 100 µM (inactive)
- GI50 (SK-MEL-28): 67.3 µM (inactive)
